Assay results published in patent publication US9896421B2, “Compound having skin-whitening, anti-oxidizing and PPAR activities and medical use thereof” (Pusan National University Industry-University Cooperation …, priority 2011, dated 2018).

Key:
[1] = system: ROS generated by vascular endothelial cells (YPEN-1); assay: In vitro ROS scavenging activity assay (DCFDA) in YPEN-1 vascular endothelial cells; assay type: cell-based, rat; details: YPEN-1 cells pre-treated with 50 μM SIN-1 for 1 hour; DCFDA fluorescence; compared with trolox (positive control); FIGS. 1 to 3
Description: YPEN-1 cells (rat prostatic endothelial cell line) was obtained from American type culture collection (ATCC, Manassas, Va., USA), and the cells were cultured by using a dulbecco's modified eagle medium (DMEM, Nissui, Tokyo, Japan) containing 2 mM L-glutamine, […], 2.5 mg/L amphotericin B, and 5% inactivated fetal bovine serum (FBS). Also, the cells were maintained at a temperature of 37° C. in a humid atmosphere-like condition containing 5% CO2 and 95% air. […] The cells were sub-cultured in 100 mm plastic flask (Corning Co., New York, USA) every two days to maintain the cell line.
Since the oil-soluble DCFDA was deacetylated into non-fluorescent DCFH due to esterase or oxidative hydrolysis and the DCFH was oxidized due to activity oxgyen to produce highly-fluorescent 2′,7′-dichlorofluorescein (DCF), the present measurement was performed at an excitation wavelength of 485 nm and an emission wavelength of 530 nm by using a fluorophotometer (GENios, TECAN). Vascular endothelial cells that were pre-treated with 50 μM 3-morpholinosydnonimine hydrochloride (SIN-1) for 1 hour were used as a reactive oxygen generation source.

male Balb/c mouse = assay: Toxicity test, single oral administration; assay type: in vivo; details: single oral dose 0.5, 1 and 2 g/kg in 0.5% methylcellulose, observed 7 days
Description: A suspension of each of Compound 3, Compound 15, Compound 50, Compound 85, Compound 93, and Compound 115 in a 0.5% methylcellulose solution was orally administered once to a male Balb/c mouse in dosages of 0.5 g/kg, 1 g/kg, and 2 g/kg, and then the survival rate and body weight of the mouse was recorded for 7 days.
After the administration, whether the mouse died, clinical symptoms occurred, and body weight changed were identified and hematologic examination and blood biochemical examination were performed, and autopsy was performed to identify with naked eyes states of abdominal cavity organs and thoracic cavity organs.

[2] = system: Mushroom-derived tyrosinase; assay: Tyrosinase inhibitory effect; assay type: biochemical; details: 1 mM L-tyrosin, pH 6.5, 25° C., 30 minutes, OD492; compared with kojic acid (positive control); FIGS. 4 to 6
Description: Mushroom-derived tyrosinase was sued as an enzyme source in the present experiment. Tyrosinase activities were assayed according to a slightly-modified conventionally known method (Life Sci., 1999, 65, 241-246). In detail, 20 μl of a mushroom-derived tyrosinase (1000 units) aqueous solution was added to 96-well microplate (Nunc, Denmark) to prepare 200 μl of the total volume of assay mixture containing 1 mM L-tyrosin solution and 50 mM phosphate buffer solution (pH 6.5). The assay mixture was cultured at a temperature of 25° C. for 30 minutes. After the culturing, an amount of the produced DOPA chrome in the reaction mixture was measured by using a microplate reader (Hewlett Packard) at 492 nm (OD492).

SMILES	melting point [°C]	scavenging effects on ROS generated by vascular endothelial cells [1]	death and clinical symptoms (male Balb/c mouse)	toxicity change (body weight change, hematologic examination, blood biochemical examination, autopsy) (male Balb/c mouse)	tyrosinase inhibitory activities [2]
O=C1NC(=O)/C(=C/c2ccc(O)c(O)c2)S1 [Compound 2, (Z)-5-(3,4-dihydroxybenzylidene)thiazolidine-2,4-dione]	> 300	as high scavenging effects on ROS generated by vascular endothelial cells as trolox	–	–	–
O=C1NC(=O)/C(=C/c2ccc(O)cc2O)S1 [Compound 3, (Z)-5-(2,4-dihydroxybenzylidene)thiazolidine-2,4-dione]	–	–	neither had distinctive clinical symptoms nor died	toxicity change was not identified	better tyrosinase inhibitory activities than a kojic acid
COc1ccc(/C=C2\SC(=O)NC2=O)cc1O [Compound 6, (Z)-5-(3-hydroxy-4-methoxybenzylidene)thiazolidine-2,4-dione]	254 to 257.6	–	–	–	better tyrosinase inhibitory activities than a kojic acid
O=C1NC(=O)C(=Cc2ccc(O)c(O)c2)C(=O)N1 [Compound 15, 5-(3,4-dihydroxybenzylidene)pyrimidine-2,4,6(1H,3H,5H)-trione]	–	as high scavenging effects on ROS generated by vascular endothelial cells as trolox	neither had distinctive clinical symptoms nor died	toxicity change was not identified	better tyrosinase inhibitory activities than a kojic acid
O=C1NC(=O)/C(=C/c2ccc(O)c(O)c2)N1 [Compound 26, (Z)-5-(3,4-dihydroxybenzylidene)imidazolidine-2,4-dione]	> 300	as high scavenging effects on ROS generated by vascular endothelial cells as trolox	–	–	–
COc1ccc(/C=C2\NC(=O)NC2=O)cc1O [Compound 29, (Z)-5-(3-hydroxy-4-methoxybenzylidene)imidazolidine-2,4-dione]	250.7 to 253.4	–	–	–	better tyrosinase inhibitory activities than a kojic acid
O=C1C/C(=C\c2ccc(O)cc2)C(=O)N1 [Compound 36, (E)-3-(4-hydroxybenzylidene)pyrrolidine-2,5-dione]	> 300	–	–	–	better tyrosinase inhibitory activities than a kojic acid
O=C1C/C(=C\c2ccc(O)c(O)c2)C(=O)N1 [Compound 37, (E)-3-(3,4-dihydroxybenzylidene)pyrrolidine-2,5-dione]	290.8 to 291.9	as high scavenging effects on ROS generated by vascular endothelial cells as trolox	–	–	–
O=C1C/C(=C\c2ccc(O)cc2O)C(=O)N1 [Compound 38, (E)-3-(2,4-dihydroxybenzylidene)pyrrolidine-2,5-dione]	> 300	–	–	–	better tyrosinase inhibitory activities than a kojic acid
COc1ccc(/C=C2\CC(=O)NC2=O)cc1O [Compound 41, (E)-3-(3-hydroxy-4-methoxybenzylidene)pyrrolidine-2,5-dione]	268.7 to 270.3	–	–	–	better tyrosinase inhibitory activities than a kojic acid
O=C1NC(=S)NC(=O)C1=Cc1ccc(O)c(O)c1 [Compound 50, 5-(3,4-dihydroxybenzylidene)-2-thioxodihydropyrimidine-4,6(1H,5H)-dione]	–	as high scavenging effects on ROS generated by vascular endothelial cells as trolox	neither had distinctive clinical symptoms nor died	toxicity change was not identified	better tyrosinase inhibitory activities than a kojic acid
COc1ccc(/C=C2\SC(=S)NC2=O)cc1O [Compound 66, (Z)-5-(3-hydroxy-4-methoxybenzylidene)-2-thioxothiazolidin-4-one]	210.2 to 212.5	–	–	–	better tyrosinase inhibitory activities than a kojic acid
[H]/N=C1/NC(=O)C(=Cc2ccc(O)c(O)c2)N1C [Compound 75, (Z)-5-(3,4-dihydroxybenzylidene)-2-imino-1-methylimidazolidin-4-one]	293 to 295.3	as high scavenging effects on ROS generated by vascular endothelial cells as trolox	–	–	–
COc1cc(/C=C2\N=C(C)OC2=O)cc(OC)c1OC(C)=O [Compound 95, (Z)-2,6-dimethoxy-4-((2-methyl-5-oxooxazol-4(5H)-ylidene)methyl)phenyl acetate]	–	as high scavenging effects on ROS generated by vascular endothelial cells as trolox	–	–	–
O=C1NC(=S)N/C1=C\c1ccc(O)c(O)c1 [Compound 99, (Z)-5-(3,4-dihydroxybenzylidene)-2-thioxoimidazolidin-4-one]	> 300	as high scavenging effects on ROS generated by vascular endothelial cells as trolox	–	–	–
O=C1NC(=S)N/C1=C\c1ccc(O)cc1O [Compound 100, (Z)-5-(2,4-dihydroxybenzylidene)-2-thioxoimidazolidin-4-one]	> 300	as high scavenging effects on ROS generated by vascular endothelial cells as trolox	–	–	–
COc1cc(/C=C2\NC(=S)NC2=O)ccc1O [Compound 101, (Z)-5-(4-hydroxy-3-methoxybenzylidene)-2-thioxoimidazolidin-4-one]	–	as high scavenging effects on ROS generated by vascular endothelial cells as trolox	–	–	–
CCOc1cc(/C=C2\NC(=S)NC2=O)ccc1O [Compound 102, (Z)-5-(3-ethoxy-4-hydroxybenzylidene)-2-thioxoimidazolidin-4-one]	175.4 to 177.2	as high scavenging effects on ROS generated by vascular endothelial cells as trolox	–	–	–
COc1ccc(/C=C2\NC(=S)NC2=O)cc1O [Compound 103, (Z)-5-(3-hydroxy-4-methoxybenzylidene)-2-thioxoimidazolidin-4-one]	279.6 to 282.2	–	–	–	better tyrosinase inhibitory activities than a kojic acid
O=C1NC(=S)N/C1=C\c1cc(O)cc(O)c1 [Compound 106, (Z)-5-(3,5-dihydroxybenzylidene)-2-thioxoimidazolidin-4-one]	> 300	as high scavenging effects on ROS generated by vascular endothelial cells as trolox	–	–	–
COc1cc(/C=C2\NC(=S)NC2=O)cc(OC)c1O [Compound 110, (Z)-5-(4-hydroxy-3,5-dimethoxybenzylidene)-2-thioxoimidazolidin-4-one]	240.1 to 242.6	as high scavenging effects on ROS generated by vascular endothelial cells as trolox	–	–	–
O=C1NC(=O)C(=Cc2ccc(OCc3ccccc3)cc2)C(=O)N1 [Compound 123, 5-(4-(benzyloxy)benzylidene)pyrimidine-2,4,6(1H,3H,5H)-trione]	–	–	–	–	better tyrosinase inhibitory activities than a kojic acid
